Data reported in the supplement of paper PMC6045584.
± gives the standard deviation of the averaged measurements.

Columns and labels:
[1] = compound: Cc1nc(Nc2n[nH]c3c2CN(C(=O)N[C@H](CN(C)C)c2ccccc2)C3(C)C)c2sccc2n1; experiment: surviving fraction relative to DMSO-only wells; higher = less growth inhibition; conditions: exposure time: 5 days
Summary of the method: (§1)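 Tumour cell lines were grown to log phase and seeded at 250–500 cells per well in 384-well plates. They were exposed continuously to inhibitors at 0.5, 1, 5, 10, 50, 100, 500 and 1000 nM for five days, beginning 24 hours after seeding. Surviving fraction is CellTiter-Glo luminescence normalised to the median of DMSO-only wells.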

[2] = compound: CCC1=C[C@@H]2CN(C1)Cc1c([nH]c3ccccc13)[C@@](C(=O)OC)(c1cc3c(cc1OC)N(C)[C@H]1[C@@](O)(C(=O)OC)[C@H](OC(C)=O)[C@]4(CC)C=CCN5CC[C@]31[C@@H]54)C2 [VINORELBINE]; experiment: as above; conditions: exposure time: 5 days
Summary of the method: as §1

| Test System | surviving fraction ([1]; 0.5 nM) | surviving fraction ([1]; 1 nM) | surviving fraction ([1]; 5 nM) | surviving fraction ([1]; 10 nM) | surviving fraction ([1]; 50 nM) | surviving fraction ([1]; 100 nM) | surviving fraction ([1]; 500 nM) | surviving fraction ([1]; 1000 nM) | surviving fraction ([2]; 0.5 nM) | surviving fraction ([2]; 1 nM) | surviving fraction ([2]; 5 nM) | surviving fraction ([2]; 10 nM) | surviving fraction ([2]; 50 nM) | surviving fraction ([2]; 100 nM) | surviving fraction ([2]; 500 nM) | surviving fraction ([2]; 1000 nM) |
| --- | --- | --- | --- | --- | --- | --- | --- | --- | --- | --- | --- | --- | --- | --- | --- | --- |
| HSSYII SYNOVIAL | 0.679 ± 0.029 | 0.789 ± 0.13 | 0.271 ± 0.021 | 0.281 ± 0.0072 | 0.216 ± 0.007 | 0.215 ± 0.018 | 0.0975 ± 0.0058 | 0.138 ± 0.0053 | 0.891 ± 0.082 | 0.836 ± 0.032 | 0.308 ± 0.033 | 0.0998 ± 0.006 | 0.0498 ± 0.003 | 0.0455 ± 0.0052 | 0.0458 ± 0.002 | 0.0588 ± 0.0063 |
| MDAMB436 BREAST | 0.952 ± 0.044 | 1 ± 0.066 | 0.932 ± 0.07 | 0.856 ± 0.071 | 0.718 ± 0.016 | 0.61 ± 0.061 | 0.507 ± 0.025 | 0.432 ± 0.03 | 0.9 ± 0.064 | 0.88 ± 0.045 | 0.796 ± 0.12 | 0.742 ± 0.038 | 0.591 ± 0.032 | 0.51 ± 0.033 | 0.211 ± 0.013 | 0.221 ± 0.018 |
| HCC1806 BREAST | 0.842 ± 0.06 | 0.521 ± 0.022 | 0.0733 ± 0.0085 | 0.0613 ± 0.0081 | 0.0497 ± 0.0047 | 0.0377 ± 0.0055 | 0.024 ± 0.001 | 0.0237 ± 0.00058 | 0.976 ± 0.16 | 1.02 ± 0.075 | 1.01 ± 0.077 | 0.173 ± 0.14 | 0.0363 ± 0.0095 | 0.0347 ± 0.0038 | 0.042 ± 0.001 | 0.041 ± 0.0053 |
| CHLA90 AUTONOMIC GANGLIA | 0.916 ± 0.055 | 0.826 ± 0.037 | 0.58 ± 0.045 | 0.477 ± 0.018 | 0.38 ± 0.036 | 0.331 ± 0.0082 | 0.233 ± 0.018 | 0.2 ± 0.011 | 1.009 ± 0.01 | 1.05 ± 0.036 | 0.951 ± 0.058 | 0.768 ± 0.011 | 0.177 ± 0.023 | 0.105 ± 0.012 | 0.0883 ± 0.012 | 0.0917 ± 0.0061 |
| OS25HAL BONE | 0.983 ± 0.016 | 0.954 ± 0.024 | 0.597 ± 0.036 | 0.367 ± 0.029 | 0.281 ± 0.007 | 0.258 ± 0.015 | 0.24 ± 0.032 | 0.218 ± 0.0047 | 0.97 ± 0.046 | 0.985 ± 0.021 | 1.02 ± 0.024 | 0.912 ± 0.052 | 0.202 ± 0.02 | 0.0833 ± 0.0083 | 0.0677 ± 0.011 | 0.057 ± 0.007 |
| U2OS BONE | 0.974 ± 0.038 | 0.901 ± 0.058 | 0.631 ± 0.016 | 0.453 ± 0.025 | 0.188 ± 0.025 | 0.142 ± 0.015 | 0.075 ± 0.0027 | 0.0633 ± 0.0015 | 1.09 ± 0.022 | 1.03 ± 0.044 | 0.993 ± 0.032 | 0.954 ± 0.04 | 0.569 ± 0.036 | 0.273 ± 0.023 | 0.116 ± 0.0097 | 0.0883 ± 0.012 |
| VP229 BREAST | 1.23 ± 0.085 | 1.15 ± 0.18 | 0.684 ± 0.099 | 0.597 ± 0.089 | 0.484 ± 0.055 | 0.386 ± 0.036 | 0.301 ± 0.031 | 0.311 ± 0.026 | 1.13 ± 0.18 | 0.962 ± 0.062 | 0.958 ± 0.098 | 0.8 ± 0.048 | 0.351 ± 0.043 | 0.297 ± 0.016 | 0.275 ± 0.012 | 0.245 ± 0.014 |
| HCC202 BREAST | 1.27 ± 0.26 | 1.12 ± 0.07 | 0.855 ± 0.24 | 0.754 ± 0.042 | 0.58 ± 0.028 | 0.501 ± 0.12 | 0.226 ± 0.038 | 0.14 ± 0.049 | 1.25 ± 0.24 | 1.21 ± 0.12 | 0.946 ± 0.088 | 0.603 ± 0.14 | 0.383 ± 0.12 | 0.313 ± 0.06 | 0.234 ± 0.056 | 0.205 ± 0.033 |
| BT20 BREAST | 1.21 ± 0.12 | 1.11 ± 0.056 | 1.34 ± 0.025 | 1.28 ± 0.013 | 0.841 ± 0.11 | 0.631 ± 0.12 | 0.614 ± 0.076 | 0.542 ± 0.062 | 1.16 ± 0.21 | 0.875 ± 0.22 | 0.973 ± 0.076 | 0.709 ± 0.18 | 0.0683 ± 0.025 | 0.055 ± 0.019 | 0.106 ± 0.029 | 0.09 ± 0.03 |
| HMT3552 BREAST | 0.986 | 0.77 | 0.376 | 0.287 | 0.219 | 0.212 | 0.17 | 0.136 | 1.05 | 1.05 | 0.59 | 0.209 | 0.104 | 0.117 | 0.253 | 0.221 |
| CAL120 BREAST | 0.904 ± 0.0095 | 0.599 ± 0.021 | 0.364 ± 0.019 | 0.287 ± 0.0047 | 0.242 ± 0.03 | 0.223 ± 0.0029 | 0.24 ± 0.028 | 0.151 ± 0.018 | 0.969 ± 0.032 | 0.9515 ± 0.0038 | 0.782 ± 0.015 | 0.623 ± 0.026 | 0.169 ± 0.017 | 0.157 ± 0.0098 | 0.154 ± 0.02 | 0.14 ± 0.0076 |
| 93VU HEADNECK | 1.01 ± 0.12 | 0.883 ± 0.045 | 0.39 ± 0.012 | 0.298 ± 0.044 | 0.24 ± 0.018 | 0.195 ± 0.0078 | 0.0973 ± 0.013 | 0.0723 ± 0.0095 | 1.02 ± 0.11 | 1.02 ± 0.19 | 1.04 ± 0.034 | 1.05 ± 0.075 | 0.554 ± 0.011 | 0.292 ± 0.03 | 0.141 ± 0.015 | 0.145 ± 0.022 |
| NOS1 BONE | 0.922 ± 0.046 | 0.847 ± 0.078 | 0.695 ± 0.051 | 0.657 ± 0.073 | 0.589 ± 0.062 | 0.559 ± 0.062 | 0.272 ± 0.043 | 0.134 ± 0.0068 | 0.987 ± 0.04 | 1.1 ± 0.081 | 0.978 ± 0.024 | 0.805 ± 0.024 | 0.287 ± 0.047 | 0.263 ± 0.035 | 0.195 ± 0.017 | 0.188 ± 0.016 |
| ASKA SYNOVIAL | 0.673 ± 0.043 | 1.09 ± 0.022 | 0.4283 ± 0.0031 | 1.16 ± 0.16 | 0.43 ± 0.027 | 1.28 ± 0.018 | 0.3113 ± 0.0015 | 1.08 ± 0.051 | 0.912 ± 0.086 | 0.846 ± 0.075 | 0.43 ± 0.029 | 0.306 ± 0.015 | 0.247 ± 0.026 | 0.229 ± 0.02 | 0.257 ± 0.03 | 0.334 ± 0.022 |
| BT549 BREAST | 1.02 ± 0.065 | 0.928 ± 0.064 | 0.299 ± 0.035 | 0.232 ± 0.034 | 0.0943 ± 0.0086 | 0.092 ± 0.019 | 0.0593 ± 0.012 | 0.052 ± 0.02 | 1.13 ± 0.039 | 1.21 ± 0.15 | 0.934 ± 0.12 | 0.618 ± 0.099 | 0.146 ± 0.037 | 0.132 ± 0.023 | 0.154 ± 0.043 | 0.158 ± 0.018 |
| HCC38 BREAST | 1.03 ± 0.25 | 0.943 ± 0.17 | 0.291 ± 0.038 | 0.255 ± 0.029 | 0.182 ± 0.02 | 0.186 ± 0.034 | 0.178 ± 0.034 | 0.0973 ± 0.011 | 1.19 ± 0.19 | 1.12 ± 0.3 | 1.24 ± 0.14 | 1.06 ± 0.12 | 0.223 ± 0.039 | 0.216 ± 0.029 | 0.334 ± 0.06 | 0.251 ± 0.0055 |
| COLO320DM LARGE INTESTINE | 1.1 ± 0.089 | 1.04 ± 0.041 | 1.11 ± 0.035 | 1.1 ± 0.072 | 0.793 ± 0.055 | 0.745 ± 0.019 | 0.333 ± 0.011 | 0.388 ± 0.015 | 1 ± 0.036 | 1.08 ± 0.059 | 1.06 ± 0.12 | 1.12 ± 0.088 | 1.09 ± 0.047 | 0.9883 ± 0.006 | 0.534 ± 0.022 | 0.293 ± 0.012 |
| SYO1 SYNOVIAL | 0.65 ± 0.017 | 0.486 ± 0.01 | 0.269 ± 0.023 | 0.214 ± 0.0035 | 0.166 ± 0.016 | 0.129 ± 0.013 | 0.0548 ± 0.0036 | 0.0347 ± 0.0023 | 1.03 ± 0.021 | 1 ± 0.027 | 0.818 ± 0.056 | 0.429 ± 0.062 | 0.114 ± 0.011 | 0.0666 ± 0.0041 | 0.052 ± 0.0061 | 0.0546 ± 0.005 |
| SUM149.B1*.S BREAST | 1.05 ± 0.021 | 1.04 ± 0.013 | 0.473 ± 0.02 | 0.817 ± 0.017 | 0.279 ± 0.032 | 0.748 ± 0.032 | 0.24 ± 0.0095 | 0.691 ± 0.046 | 1.11 ± 0.042 | 1.06 ± 0.05 | 1.09 ± 0.057 | 0.994 ± 0.015 | 0.338 ± 0.038 | 0.154 ± 0.017 | 0.171 ± 0.019 | 0.193 ± 0.0067 |
| SG27 HEADNECK | 0.936 ± 0.024 | 0.931 ± 0.029 | 0.64 ± 0.069 | 0.612 ± 0.066 | 0.408 ± 0.069 | 0.373 ± 0.053 | 0.199 ± 0.046 | 0.115 ± 0.01 | 1.17 ± 0.16 | 1.09 ± 0.096 | 1.13 ± 0.12 | 1.08 ± 0.15 | 1.03 ± 0.1 | 1.15 ± 0.018 | 1.26 ± 0.08 | 1.33 ± 0.27 |
